# In patent US20040171688A1, “Carboxylic acids and derivatives thereof and pharmaceutical compositions containing them” (priority 1997, published 2004):
# Target: T1, HNF-4α (Rattus norvegicus, UniProt P22449)
# T1 sequence (P22449 1-464 isoform P22449-2): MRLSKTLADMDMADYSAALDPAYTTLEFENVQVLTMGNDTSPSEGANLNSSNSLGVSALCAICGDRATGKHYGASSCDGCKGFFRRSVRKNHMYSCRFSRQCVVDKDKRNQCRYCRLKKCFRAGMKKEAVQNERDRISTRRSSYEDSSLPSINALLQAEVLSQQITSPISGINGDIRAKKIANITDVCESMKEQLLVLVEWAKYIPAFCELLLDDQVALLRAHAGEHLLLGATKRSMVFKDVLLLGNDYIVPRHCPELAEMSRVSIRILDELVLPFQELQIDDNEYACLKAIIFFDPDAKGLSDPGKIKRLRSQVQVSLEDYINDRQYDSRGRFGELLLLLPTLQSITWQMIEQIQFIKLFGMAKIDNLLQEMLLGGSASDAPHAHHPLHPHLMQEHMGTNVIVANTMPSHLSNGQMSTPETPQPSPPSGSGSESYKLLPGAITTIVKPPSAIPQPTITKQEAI
# Experiment: Transfection assay: COS-7 cells cotransfected with (C3P)3-TK-CAT reporter and pSG5-HNF-4α
# Assay type: cell-based
# Parameters: expressed in transfected cells; host or cells: COS-7
# Conditions: for EC50: proligands added to culture medium of COS-7 cells (FIG. 4b), read-out: EC50 of HNF-4α suppression (CAT activity); for inhibition of HNF-4α transcriptional activity, effectiveness in words: transfection assays, added to culture medium; for effect on HNF-4α dependent transcription (CAT activity): free fatty acids added to culture medium of COS-7 cells (FIG. 4a)
# Description: a. […] Fold induction of CAT activity by transfected HNF-4I is determined by evaluating CAT activity in the presence of pSG5-HNF-4I as compared with pSG5 plasmid and as function of respective fatty acids added to the culture medium as indicated. The figure summarizes 3-4 independent experiments for each fatty acid. Mean ± S.E.
# b. […] Fold induction refers to CAT activity in cells incubated with 3,3,12,12-tetramethyl-tetradecanedioic acid (∘), 3,3,14,14-tetramethyl-hexadecanedioic acid (□) and 3,3,16,16-tetramethyl-octadecanedioic acid (Δ) proligands normalized to the activity in cells incubated in the absence of added proligands.
# COS-7 cells cotransfected for 6 h with the (C3P)3-TK-CAT reporter plasmid (5 μg) and with either the pSG5-HNF-4α expression plasmid ([…]) or the pSG5 plasmid (0.025 μg) added by calcium phosphate precipitation were cultured in serum free medium with fatty acids (complexed with albumin in a molar ratio of 6:1) added as indicated. β-Galactosidase expression vector pRSGAL (1 μg) added to each precipitate served as an internal control for transfection. The (C3P)3-TK-CAT construct was prepared by inserting a synthetic oligonucleotide encompassing the (−87/−66) Apo CIII promoter sequence (5′-[…]-3′) flanked by HindIII restriction site into pBLCAT2^47 upstream of the −105 bp thymidine kinase promoter. The construct containing three copies of the synthetic oligonucleotide in the direct orientation was selected and confirmed by sequencing.
# The intracellular effect of HNF-4α ligands on HNF-4α mediated transcription was evaluated in COS-7 cells cotransfected with an expression vector for HNF-4α and with a CAT reporter plasmid driven by a thymidine kinase promoter and enhanced by one to three C3P copies of the apo CIII gene promoter. Transfected cells were incubated in the presence of free fatty acids and xenobiotic amphipathic carboxylates representing agonistic or antagonistic HNF-4α proligands.
SMILES,EC50,"inhibition of HNF-4α transcriptional activity, effectiveness in words",effect on HNF-4α dependent transcription (CAT activity)
"CC(C)(CCCCCCCCCCC(C)(C)C(=O)O)C(=O)O [2,2,13,13-tetramethyl-tetradecane dioic acid]",230 µM,–,–
"CC(C)(CCCCCCCCCCCCC(C)(C)C(=O)O)C(=O)O [2,2,15,15-tetramethyl-hexadecane dioic acid]",150 µM,Highly effective,–
"CC(C)(CCCCCCCCCCCCCCC(C)(C)C(=O)O)C(=O)O [2,2,17,17-tetramethyl-octadecane dioic acid]",150 µM,Highly effective,–
"CC(C)(CCCCCCCCC(C)(C)CCC(=O)O)CCC(=O)O [4,4,13,13-tetramethyl-hexadecane dioic acid]",150 µM,Highly effective,–
"CC(C)(CCCCCCCCCCC(C)(C)CCC(=O)O)CCC(=O)O [4,4,15,15-tetramethyl-octadecane dioic acid]",150 µM,Highly effective,–
"CC(C)(CCCCCCCCCCCCCCO)C(=O)O [16-hydroxy-2,2-dimethyl-hexadecanoic acid]",–,effective,–
"CC(C)(CCCCCCCCCCCCCO)CC(=O)O [16-hydroxy-3,3-dimethyl-hexadecanoic acid]",–,effective,–
"CC(C)(CCCCCCCCCCCCO)CCC(=O)O [16-hydroxy-4,4-dimethyl-hexadecanoic acid]",–,effective,–
O=C(O)CCCCCCCCCCCCCCCO [16-hydroxy-hexadecanoic acid],–,effective,–
"CC(C)(CCCCCCCCCCCCCCCCO)C(=O)O [18-hydroxy-2,2-dimethyl-octadecanoic acid]",–,effective,–
"CC(C)(CCCCCCCCCCCCCCCO)CC(=O)O [18-hydroxy-3,3-dimethyl-octa-decanoic acid]",–,effective,–
"CC(C)(CCCCCCCCCCCCCCO)CCC(=O)O [18-hydroxy-4,4-dimethyl-octadecanoic acid]",–,effective,–
O=C(O)CCCCCCCCCCCCCCCCCO [18-hydroxy-octadecanoic acid],–,effective,–
"COc1ccc2c(c1)c(CC(=O)O)c(C)n2C(=O)c1ccc(Cl)cc1 [Indomethacine, reference compound]",130 µM,–,–
"CC/C=C\C/C=C\C/C=C\C/C=C\C/C=C\CCCC(=O)O [eicosapentaenoic(20:5) acids, eicosapentaenoic(20:5) acid]",–,–,suppressive
CCCCCCCCCCCCCCCC(=O)O [palmitic(16:0) acid],–,–,dose dependent activation
"CC/C=C\C/C=C\C/C=C\CCCCCCCC(=O)O [α-linolenic(18:3), α-linolenic(18:3) acid]",–,–,suppressive
